In the NIST ThermoML archive (doi:10.1021/je700287u):
± gives the expanded uncertainty stated by the source.

Test: xn = mol fraction of the nth substance listed
Details: Liquid

For `CN(CCO)CCO` [N-methyldiethanolamine] + O, the mass density (352.84 K, 15989 kPa, x1 = 0.1302) was 1010.4 ± 0.4 kg/m3, the mass density (352.84 K, 16976 kPa, x1 = 0.1302) was 1010.8 ± 0.4 kg/m3 and the mass density (352.84 K, 17977 kPa, x1 = 0.1302) was 1011.2 ± 0.4 kg/m3. For the same compound, the mass density (352.84 K, 18979 kPa, x1 = 0.1302) was 1011.6 ± 0.4 kg/m3, the mass density (352.84 K, 19995 kPa, x1 = 0.1302) was 1012 ± 0.4 kg/m3 and the mass density (352.85 K, 1004 kPa, x1 = 0.0369) was 983.9 ± 0.4 kg/m3. It also gave a mass density (352.85 K, 2037 kPa, x1 = 0.0369) of 984.4 ± 0.4 kg/m3, a mass density (352.85 K, 2962 kPa, x1 = 0.0369) of 984.8 ± 0.4 kg/m3 and a mass density (352.85 K, 4014 kPa, x1 = 0.0369) of 985.2 ± 0.4 kg/m3. For the same compound, the mass density (352.85 K, 4994 kPa, x1 = 0.0369) was 985.6 ± 0.4 kg/m3, the mass density (352.85 K, 6034 kPa, x1 = 0.0369) was 986.1 ± 0.4 kg/m3 and the mass density (352.85 K, 6999 kPa, x1 = 0.0369) was 986.5 ± 0.4 kg/m3. It also gave a mass density (352.85 K, 8019 kPa, x1 = 0.0369) of 987 ± 0.4 kg/m3, a mass density (352.85 K, 8987 kPa, x1 = 0.0369) of 987.3 ± 0.4 kg/m3 and a mass density (352.85 K, 9992 kPa, x1 = 0.0369) of 987.8 ± 0.4 kg/m3. It also gave a mass density (352.85 K, 10987 kPa, x1 = 0.0369) of 988.2 ± 0.4 kg/m3, a mass density (352.85 K, 11994 kPa, x1 = 0.0369) of 988.6 ± 0.4 kg/m3 and a mass density (352.85 K, 12978 kPa, x1 = 0.0369) of 989.1 ± 0.4 kg/m3. For the same compound, the mass density (352.85 K, 13987 kPa, x1 = 0.0369) was 989.4 ± 0.4 kg/m3, the mass density (352.85 K, 14998 kPa, x1 = 0.0369) was 989.9 ± 0.4 kg/m3 and the mass density (352.85 K, 15956 kPa, x1 = 0.0369) was 990.2 ± 0.4 kg/m3. The mass density (352.85 K, 16987 kPa, x1 = 0.0369) was 990.7 ± 0.4 kg/m3, the mass density (352.85 K, 17991 kPa, x1 = 0.0369) was 991.1 ± 0.4 kg/m3 and the mass density (352.85 K, 18986 kPa, x1 = 0.0369) was 991.5 ± 0.4 kg/m3. The mass density (352.85 K, 19988 kPa, x1 = 0.0369) was 991.9 ± 0.4 kg/m3, the mass density (352.88 K, 1037 kPa, x1 = 0.0893) was 998.6 ± 0.4 kg/m3 and the mass density (352.88 K, 2010 kPa, x1 = 0.0893) was 999 ± 0.4 kg/m3. For the same compound, the mass density (352.88 K, 3005 kPa, x1 = 0.0893) was 999.5 ± 0.4 kg/m3, the mass density (352.88 K, 4010 kPa, x1 = 0.0893) was 999.9 ± 0.4 kg/m3 and the mass density (352.88 K, 4999 kPa, x1 = 0.0893) was 1000.3 ± 0.4 kg/m3. For the same compound, the mass density (352.88 K, 5993 kPa, x1 = 0.0893) was 1000.7 ± 0.4 kg/m3, the mass density (352.88 K, 7000 kPa, x1 = 0.0893) was 1001.1 ± 0.4 kg/m3 and the mass density (352.88 K, 7998 kPa, x1 = 0.0893) was 1001.6 ± 0.4 kg/m3. The mass density (352.88 K, 8982 kPa, x1 = 0.0893) was 1002 ± 0.4 kg/m3, the mass density (352.88 K, 9977 kPa, x1 = 0.0893) was 1002.4 ± 0.4 kg/m3 and the mass density (352.88 K, 10995 kPa, x1 = 0.0893) was 1002.8 ± 0.4 kg/m3. The mass density (352.88 K, 11987 kPa, x1 = 0.0893) was 1003.3 ± 0.4 kg/m3, the mass density (352.88 K, 12999 kPa, x1 = 0.0893) was 1003.7 ± 0.4 kg/m3 and the mass density (352.88 K, 13990 kPa, x1 = 0.0893) was 1004.1 ± 0.4 kg/m3. The mass density (352.88 K, 14969 kPa, x1 = 0.0893) was 1004.5 ± 0.4 kg/m3, the mass density (352.88 K, 15990 kPa, x1 = 0.0893) was 1004.9 ± 0.4 kg/m3 and the mass density (352.88 K, 16991 kPa, x1 = 0.0893) was 1005.3 ± 0.4 kg/m3. For the same compound, the mass density (352.88 K, 18009 kPa, x1 = 0.0893) was 1005.8 ± 0.4 kg/m3, the mass density (352.88 K, 18994 kPa, x1 = 0.0893) was 1006.2 ± 0.4 kg/m3 and the mass density (352.88 K, 20015 kPa, x1 = 0.0893) was 1006.6 ± 0.4 kg/m3. It also gave a mass density (362.71 K, 1012 kPa, x1 = 0.0369) of 977.3 ± 0.4 kg/m3, a mass density (362.71 K, 2054 kPa, x1 = 0.0369) of 977.8 ± 0.4 kg/m3 and a mass density (362.71 K, 3004 kPa, x1 = 0.0369) of 978.2 ± 0.4 kg/m3. It also gave a mass density (362.71 K, 3981 kPa, x1 = 0.0369) of 978.6 ± 0.4 kg/m3, a mass density (362.71 K, 4997 kPa, x1 = 0.0369) of 979.1 ± 0.4 kg/m3 and a mass density (362.71 K, 6006 kPa, x1 = 0.0369) of 979.5 ± 0.4 kg/m3. For the same compound, the mass density (362.71 K, 7005 kPa, x1 = 0.0369) was 979.9 ± 0.4 kg/m3, the mass density (362.71 K, 7962 kPa, x1 = 0.0369) was 980.3 ± 0.4 kg/m3 and the mass density (362.71 K, 8999 kPa, x1 = 0.0369) was 980.8 ± 0.4 kg/m3. For the same compound, the mass density (362.71 K, 9999 kPa, x1 = 0.0369) was 981.2 ± 0.4 kg/m3, the mass density (362.71 K, 10997 kPa, x1 = 0.0369) was 981.6 ± 0.4 kg/m3 and the mass density (362.71 K, 11979 kPa, x1 = 0.0369) was 982 ± 0.4 kg/m3. The mass density (362.71 K, 12988 kPa, x1 = 0.0369) was 982.5 ± 0.4 kg/m3, the mass density (362.71 K, 13990 kPa, x1 = 0.0369) was 982.9 ± 0.4 kg/m3 and the mass density (362.71 K, 14982 kPa, x1 = 0.0369) was 983.4 ± 0.4 kg/m3. It also gave a mass density (362.71 K, 15982 kPa, x1 = 0.0369) of 983.8 ± 0.4 kg/m3, a mass density (362.71 K, 16992 kPa, x1 = 0.0369) of 984.2 ± 0.4 kg/m3 and a mass density (362.71 K, 17958 kPa, x1 = 0.0369) of 984.6 ± 0.4 kg/m3. For the same compound, the mass density (362.71 K, 18984 kPa, x1 = 0.0369) was 985.1 ± 0.4 kg/m3, the mass density (362.71 K, 19984 kPa, x1 = 0.0369) was 985.5 ± 0.4 kg/m3 and the mass density (362.72 K, 1043 kPa, x1 = 0.1302) was 995.9 ± 0.4 kg/m3. For the same compound, the mass density (362.72 K, 2117 kPa, x1 = 0.1302) was 996.4 ± 0.4 kg/m3, the mass density (362.72 K, 3008 kPa, x1 = 0.1302) was 996.8 ± 0.4 kg/m3 and the mass density (362.72 K, 3995 kPa, x1 = 0.1302) was 997.3 ± 0.4 kg/m3. The mass density (362.72 K, 5002 kPa, x1 = 0.1302) was 997.8 ± 0.4 kg/m3, the mass density (362.72 K, 5994 kPa, x1 = 0.1302) was 998.2 ± 0.4 kg/m3 and the mass density (362.72 K, 6994 kPa, x1 = 0.1302) was 998.6 ± 0.4 kg/m3. The mass density (362.72 K, 8003 kPa, x1 = 0.1302) was 999.1 ± 0.4 kg/m3, the mass density (362.72 K, 8988 kPa, x1 = 0.1302) was 999.6 ± 0.4 kg/m3 and the mass density (362.72 K, 9991 kPa, x1 = 0.1302) was 1000 ± 0.4 kg/m3. For the same compound, the mass density (362.72 K, 11003 kPa, x1 = 0.1302) was 1000.4 ± 0.4 kg/m3, the mass density (362.72 K, 12036 kPa, x1 = 0.1302) was 1000.9 ± 0.4 kg/m3 and the mass density (362.72 K, 13005 kPa, x1 = 0.1302) was 1001.3 ± 0.4 kg/m3. It also gave a mass density (362.72 K, 13983 kPa, x1 = 0.1302) of 1001.7 ± 0.4 kg/m3, a mass density (362.72 K, 14984 kPa, x1 = 0.1302) of 1002.2 ± 0.4 kg/m3 and a mass density (362.72 K, 15981 kPa, x1 = 0.1302) of 1002.6 ± 0.4 kg/m3. The mass density (362.72 K, 16993 kPa, x1 = 0.1302) was 1003 ± 0.4 kg/m3, the mass density (362.72 K, 17988 kPa, x1 = 0.1302) was 1003.5 ± 0.4 kg/m3 and the mass density (362.72 K, 18994 kPa, x1 = 0.1302) was 1003.9 ± 0.4 kg/m3. It also gave a mass density (362.72 K, 19995 kPa, x1 = 0.1302) of 1004.4 ± 0.4 kg/m3, a mass density (362.75 K, 993 kPa, x1 = 0.0893) of 990.9 ± 0.4 kg/m3 and a mass density (362.75 K, 2025 kPa, x1 = 0.0893) of 991.3 ± 0.4 kg/m3. It also gave a mass density (362.75 K, 3013 kPa, x1 = 0.0893) of 991.8 ± 0.4 kg/m3, a mass density (362.75 K, 3995 kPa, x1 = 0.0893) of 992.2 ± 0.4 kg/m3 and a mass density (362.75 K, 5018 kPa, x1 = 0.0893) of 992.7 ± 0.4 kg/m3. It also gave a mass density (362.75 K, 6003 kPa, x1 = 0.0893) of 993.1 ± 0.4 kg/m3, a mass density (362.75 K, 6988 kPa, x1 = 0.0893) of 993.6 ± 0.4 kg/m3 and a mass density (362.75 K, 8002 kPa, x1 = 0.0893) of 994 ± 0.4 kg/m3. The mass density (362.75 K, 8996 kPa, x1 = 0.0893) was 994.4 ± 0.4 kg/m3, the mass density (362.75 K, 10040 kPa, x1 = 0.0893) was 994.9 ± 0.4 kg/m3 and the mass density (362.75 K, 11000 kPa, x1 = 0.0893) was 995.3 ± 0.4 kg/m3. For the same compound, the mass density (362.75 K, 11988 kPa, x1 = 0.0893) was 995.7 ± 0.4 kg/m3, the mass density (362.75 K, 12992 kPa, x1 = 0.0893) was 996.1 ± 0.4 kg/m3 and the mass density (362.75 K, 13990 kPa, x1 = 0.0893) was 996.6 ± 0.4 kg/m3. It also gave a mass density (362.75 K, 14990 kPa, x1 = 0.0893) of 997 ± 0.4 kg/m3, a mass density (362.75 K, 15993 kPa, x1 = 0.0893) of 997.5 ± 0.4 kg/m3 and a mass density (362.75 K, 17004 kPa, x1 = 0.0893) of 997.9 ± 0.4 kg/m3. The mass density (362.75 K, 17984 kPa, x1 = 0.0893) was 998.3 ± 0.4 kg/m3, the mass density (362.75 K, 19022 kPa, x1 = 0.0893) was 998.7 ± 0.4 kg/m3 and the mass density (362.75 K, 19984 kPa, x1 = 0.0893) was 999.2 ± 0.4 kg/m3.
